Assays:
[1] = (§1) Inhibition of recombinant HIV1 Viral Protein U expressed in Escherichia coli BL21(DE3) cells/BST-2 (unknown origin) interaction at 100 uM preincubated for 30 mins with viral protein U followed by further incubation with BST-2 for 1 hr by sandwich ELISA relative to control; settings: time 90.0 min
[2] = Aqueous solubility of the compound in phosphate buffer saline at 200 uM at wavelength of 250 nm incubated for overnight under shaking condition by filtration assay based UV-visible spectroscopy; assay type: physicochemical
[3] = test system: Human immunodeficiency virus 1; assay: Antiviral activity against HIV1 LAV infected in human MT4 cells assessed as reduction in viral replication by measuring reduction in p24 expression incubated for 72 hrs by ELISA; assay type: functional, organism-based; settings: Human immunodeficiency virus 1, LAV, MT4, 72 h
[4] = Cytotoxicity against human MT4 cells assessed as inhibition of cell viability incubated for 72 hrs by MTS assay; assay type: cell-based
[5] = Selectivity index, ratio of CC50 for human MT4 cells to EC50 for antiviral activity against HIV1 LAV infected in human MT4 cells; assay type: toxicity, cell-based; settings: MT4 cells (CC50) and HIV1 LAV infected MT4 cells (EC50)
[6] = Inhibition of recombinant biotinylated HIV1 Viral Protein U expressed in Escherichia coli BL21(DE3) cells/recombinant GST-tagged BST-2 (unknown origin) interaction preincubated for 30 mins with viral protein U followed by further incubation with BST-2 for 1 hr by Alphascreen assay
[7] = as §1, with “recombinant biotinylated” for “recombinant”, “BL21(DE3)cells/recombinant GST-tagged BST-2” for “BL21(DE3) cells/BST-2”, “Alphascreen assay” for “sandwich ELISA”; settings: time 90.0 min
[8] = Aqueous solubility of the compound in phosphate buffer saline at 100 uM at wavelength of 250 nm incubated for overnight under shaking condition by filtration assay based UV-visible spectroscopy; assay type: physicochemical
[9] = test system: Human immunodeficiency virus 1; assay: Antiviral activity against HIV1 infected in PBMC assessed as reduction in viral replication by measuring reduction in p24 production by ELISA; assay type: functional, organism-based; settings: Human immunodeficiency virus 1, PBMC

| Structure (SMILES) | inhibition [1] [%] | other results |
| --- | --- | --- |
| COc1cccc(-c2cncn2CC(=O)O)c1 | 30 |  |
| NNC(=O)Cn1cncc1-c1ccc2c(c1)OCO2 | 22 |  |
| NNC(=O)Cn1cncc1-c1ccc(F)cc1 | 48 |  |
| CC(C)(C)c1ccc(-c2cncn2CC(=O)O)cc1 | 2 |  |
| O=C(O)Cn1cncc1-c1ccc(F)cc1 | 11 |  |
| CCOC(=O)[C@H](C)n1cncc1-c1ccccc1 | 22 |  |
| COc1ccc(-c2cncn2CC(=O)NN)cc1OC | 28 |  |
| CCOC(=O)Cn1cncc1-c1ccccc1 | 82 | solubility at 200 µM [2]: ≥ 200 µM; EC50 [3]: 6.3 µM; CC50 at 72 h [4]: 184 µM; selectivity ratio [5]: 29; IC50 [6]: 11.6 µM; inhibition [7]: 83%; solubility at 100 µM [8]: ≥ 100 µM |
| O=C(O)Cn1cncc1-c1ccc2c(c1)OCO2 | 9 |  |
| CCOC(=O)Cn1cncc1-c1ccc(C(C)(C)C)cc1 | 17 |  |
| CCOC(=O)Cn1cncc1-c1cccc(OC)c1 | 51 | inhibition [7]: 56% |
| O=c1cnn([C@@H]2O[C@H](CO)[C@@H](O)[C@H]2O)c(=S)[nH]1 | 54 |  |
| CC(C)(C)c1ccc(-c2cncn2CC(=O)NN)cc1 | 45 |  |
| CCOC(=O)[C@H](C)n1cncc1-c1ccc(OC)c(OC)c1 | 20 |  |
| CCOC(=O)Cn1cncc1-c1ccc2c(c1)OCO2 | 33 |  |
| CCOC(=O)Cn1cncc1-c1ccc(OC)c(OC)c1 | 58 | inhibition [7]: 61% |
| CCOC(=O)Cn1cncc1-c1ccc(OC)c(O)c1 | 30 |  |
| COc1ccc(-c2cncn2CC(=O)O)cc1OC | 25 |  |
| Cc1nnc(C(=O)NC(C)(C)c2nc(C(=O)NCc3ccc(F)cc3)c(O)c(=O)n2C)o1 [RALTEGRAVIR] |  | EC50 [9]: ≤ 0.008 µM; EC50 [3]: 0.0079 µM |
| COc1ccc(-c2cncn2CC(=O)NN)cc1O | 72 | inhibition [7]: 60% |
| CCOC(=O)Cn1cncc1-c1ccc(F)cc1 | 54 | inhibition [7]: 55% |
| O=C(O)Cn1cncc1-c1ccccc1 | 0 |  |
| NNC(=O)Cn1cncc1-c1ccccc1 | 39 |  |
| COc1cccc(-c2cncn2CC(=O)NN)c1 | 69 | solubility at 200 µM [2]: ≥ 200 µM; EC50 [3]: 158 µM; CC50 at 72 h [4]: 160 µM; selectivity ratio [5]: 1; IC50 [6]: 17.6 µM; inhibition [7]: 68%; solubility at 100 µM [8]: ≥ 100 µM |
| COc1ccc(-c2cncn2CC(=O)O)cc1O | 0 |  |
| CCOC(=O)[C@H](C)n1cncc1-c1ccc(F)cc1 | 63 | inhibition [7]: 64% |

Reference: ChEMBL document CHEMBL4765264, “Design, synthesis and biological evaluation of novel 2-(5-aryl-1H-imidazol-1-yl) derivatives as potential inhibitors of the HIV-1 Vpu and host BST-2 protein interaction” (Eur J Med Chem, 2020)
